From US20110319392A1, “Thiazole Sulfonamide And Oxazole Sulfonamide Kinase Inhibitors” (priority 2009, published 2011)

How the values were obtained:
Colo205 tumor cells = test: Cell growth inhibition assay (CellTiter-Glo), Colo205; type: cell-based, Human; conditions: Homo sapiens, COLO 205, 72 h; 3 days incubation
Description: (§1) Human breast tumor cells (BT474) were cultured in RPMI (Mediatech […]), containing 10% FBS (JRH Biosciences 12176) and 1% penicillin-streptomycin (Invitrogen 15140). Human head and neck tumor cells (HN5) were cultured in high glucose DMEM (Mediatech 50-013-PB) containing 10% FBS and 1% penicillin-streptomycin. Human colon tumor cells (Colo205) were cultured in RPMI (Mediatech 50-020-PB) containing 10% FBS and 1% penicillin-streptomycin. Human melanoma cancer cells (SK-MEL-28) were cultured in EMEM with nonessential amino acids (Mediatech 50-011-PB) containing 10% FBS, 1% sodium pyruvate (JT Baker 3354-04), and 1% penicillin-streptomycin. Human melanoma cancer cells (A375P F11s) were cultured in RPMI (Mediatech 50-020-PB) containing 10% FBS, 1% sodium pyruvate, and 1% penicillin-streptomycin. Human colon cancer cells (HT-29) were cultured in high glucose DMEM (Mediatech 50-013-PB) containing 10% FBS and 1% penicillin-streptomycin. Human melanoma cancer cells (SK-MEL-3) were cultured in McCoy's 5A (50-025-PB) containing 15% FBS, and 1% penicillin-streptomycin. All cell lines were maintained at 37° C. in a humidified 5% CO2, 95% air incubator. Cells were harvested using trypsin/EDTA (Invitrogen 25200), counted using a haemocytometer, and plated. For 96-well assays (using white full-area NUNC plates cat. #136102), cells were plated in 105 μL at the following densities (cells/well): HNS, 500; Colo 205, 500; SK-MEL-28, 500; A375P F11s, 500; HT-29, 500; SK-MEL-3, 500; and BT474, 3000. For 384-well assays (white full-area NUNC plates, cat. #781080), cells were plated in 48 μL at the following densities (cells/well): HNS, 500; Colo205, 500; SK-MEL-28, 500; A375P F11s, 500; HT-29, 500; SK-MEL-3, 500; and BT474, 2000.
(§2) The next day, compounds were diluted as follow: For 96-well assays, 13.5 μL of compound in DMSO were diluted using nine (9) serial 1:3 dilutions of 4.5 μL in 9 of DMSO. Medium (270 μL/well of RPMI with 10% FBS and 1% penicillin-streptomycin) was added to the plates. Aliquots (7 μL) were added to cells in the final assay giving a final DMSO concentration of 0.2%. For 384-well assays, 15 μL of compound in DMSO were diluted using nine (9) serial 1:3 dilutions of 5 μL in 10 μL of DMSO, followed by a further dilution of 5 μL of compound with 95 μL of medium, of which 2 μL were added to cells in the final assay giving a final DMSO concentration of 0.2%. Cells were incubated at 37° C., 5% CO2 for 3 days.
(§3) Total ATP was measured (as a surrogate estimate of cell number) using CellTiter-Glo® reagent (Promega G7571). Briefly, plates were removed from the incubator and allowed to equilibrate to room temperature for 30 minutes. CellTiter-Glo® (25 μL or 55 μL for 384-well or 96-well assays, respectively) reagent was added to each well and plates were shaken on an orbital plate shaker for 2 minutes. Plates were incubated without shaking for a further 30 minutes and read on an LJL Analyst GT reader in luminometer mode with an integration time of 0.5 seconds per well. Percent inhibition of cell growth was calculated relative to DMSO vehicle-treated control wells. Concentration of compound required to give 50% inhibition of vehicle-treated control cell growth (IC50) was interpolated using a 4-parameter fit for determining IC50 using the following equation: Y=A +((B−A)/(1+((C/X)̂D))) where […].

B-Raf = B-Raf (Homo sapiens, UniProt P15056); test: B-Raf Accelerated MEK ATPase assay (BRAMA), Method A or B; type: biochemical; conditions: Method B: final MEK 150 nM, single end point read
Sequence of B-Raf (P15056 whole entry): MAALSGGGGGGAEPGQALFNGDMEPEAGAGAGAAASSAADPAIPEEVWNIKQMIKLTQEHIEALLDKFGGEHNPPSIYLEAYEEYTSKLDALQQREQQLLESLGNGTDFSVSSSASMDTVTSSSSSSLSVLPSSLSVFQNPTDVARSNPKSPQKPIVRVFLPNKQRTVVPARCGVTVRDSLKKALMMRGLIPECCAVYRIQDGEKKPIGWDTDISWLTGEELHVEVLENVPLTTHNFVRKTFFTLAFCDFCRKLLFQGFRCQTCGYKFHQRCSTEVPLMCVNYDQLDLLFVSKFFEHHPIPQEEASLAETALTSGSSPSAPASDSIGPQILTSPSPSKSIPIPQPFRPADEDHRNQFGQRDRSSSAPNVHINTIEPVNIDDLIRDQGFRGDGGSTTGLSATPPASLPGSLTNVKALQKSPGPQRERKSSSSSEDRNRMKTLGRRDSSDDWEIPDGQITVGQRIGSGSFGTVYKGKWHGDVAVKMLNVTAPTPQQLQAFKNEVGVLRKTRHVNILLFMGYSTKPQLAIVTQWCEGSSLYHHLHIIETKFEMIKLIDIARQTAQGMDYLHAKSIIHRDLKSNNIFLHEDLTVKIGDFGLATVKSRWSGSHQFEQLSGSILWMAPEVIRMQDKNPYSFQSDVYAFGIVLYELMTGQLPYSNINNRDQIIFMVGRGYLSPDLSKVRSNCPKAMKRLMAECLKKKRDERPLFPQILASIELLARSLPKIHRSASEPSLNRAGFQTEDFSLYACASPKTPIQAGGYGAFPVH
Description: Compounds of the present invention were tested for B-Raf protein serine kinase inhibitory activity in a B-Raf Accelerated MEK ATPase assay (BRAMA). The BRAMA assay is a high sensitivity assay which measures an intrinsic MEK-mediated ATP hydrolysis uncoupled from downstream ERK phosphorylation by coupling the formation of ADP to NADH oxidation through the enzymes pyruvate kinase and lactate dehydrogenase. When ADP production is initiated by addition of catalytic amounts of an activated Raf enzyme and non-phosphorylated MEK, one observes robust ADP production concomitant with Raf-mediated phosphorylation of MEK.
Method A: Specific details of the assay are disclosed in: C. Rominger, M. Schaber, E. May. Assay for B-Raf Activity Based on Intrinsic MEK ATPase Activity. Statutory Invention Registration 11/084,993 (March, 2005). Method B: The method is the same as method A, but includes the following changes: 1) the assay was performed with a final MEK concentration of 150 nM and 2) the assay was read as single end point instead of a kinetic read.

EGFR = target: T1, EGFR (Homo sapiens, UniProt P00533); test: EGFR substrate phosphorylation assay (HTRF); type: biochemical
T1 construct: made in house; host or cells: baculovirus expression system
T1 sequence (P00533 25-1210): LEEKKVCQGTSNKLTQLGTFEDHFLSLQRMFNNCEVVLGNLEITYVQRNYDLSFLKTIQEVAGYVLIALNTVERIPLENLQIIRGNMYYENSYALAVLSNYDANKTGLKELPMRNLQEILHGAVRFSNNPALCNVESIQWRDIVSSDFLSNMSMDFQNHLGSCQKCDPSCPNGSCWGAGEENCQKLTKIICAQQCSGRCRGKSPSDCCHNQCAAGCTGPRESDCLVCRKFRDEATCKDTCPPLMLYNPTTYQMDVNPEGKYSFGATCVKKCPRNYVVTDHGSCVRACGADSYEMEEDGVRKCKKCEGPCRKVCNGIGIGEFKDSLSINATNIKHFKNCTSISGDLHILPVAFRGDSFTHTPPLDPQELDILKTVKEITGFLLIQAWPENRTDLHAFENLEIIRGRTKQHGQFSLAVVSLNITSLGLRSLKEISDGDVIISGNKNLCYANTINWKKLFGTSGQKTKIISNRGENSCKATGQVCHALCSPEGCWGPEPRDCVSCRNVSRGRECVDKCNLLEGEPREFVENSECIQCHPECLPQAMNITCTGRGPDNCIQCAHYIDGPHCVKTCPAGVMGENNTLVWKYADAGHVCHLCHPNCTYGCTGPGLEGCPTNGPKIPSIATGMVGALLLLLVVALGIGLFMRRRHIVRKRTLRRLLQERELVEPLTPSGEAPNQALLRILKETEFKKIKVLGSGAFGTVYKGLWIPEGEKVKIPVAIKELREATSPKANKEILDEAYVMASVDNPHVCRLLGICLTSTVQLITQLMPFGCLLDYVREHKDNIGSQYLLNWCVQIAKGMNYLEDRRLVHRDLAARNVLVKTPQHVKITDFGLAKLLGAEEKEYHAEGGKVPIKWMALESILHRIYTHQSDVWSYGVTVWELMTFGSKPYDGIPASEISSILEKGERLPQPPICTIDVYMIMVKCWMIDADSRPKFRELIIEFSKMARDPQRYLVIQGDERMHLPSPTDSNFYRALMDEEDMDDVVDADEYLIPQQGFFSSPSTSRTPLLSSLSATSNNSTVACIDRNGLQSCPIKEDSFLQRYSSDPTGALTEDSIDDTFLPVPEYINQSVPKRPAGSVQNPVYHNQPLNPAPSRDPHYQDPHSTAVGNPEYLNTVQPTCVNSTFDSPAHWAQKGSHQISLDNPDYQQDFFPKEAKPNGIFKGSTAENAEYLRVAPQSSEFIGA
Description: (§4) Compounds of the present invention were tested for EGFR and ErbB-2 protein tyrosine kinase inhibitory activity in substrate phosphorylation assays using enzymes purified from a baculovirus expression system. Reagent production was conducted essentially as described in Brignola, P. S., et al, (2002) J. Biol. Chem. 277(2):1576-1585.
(§5) The method measures the ability of the isolated enzyme to catalyse the transfer of the gamma-phosphate from ATP onto the tyrosine residue of a biotinylated synthetic peptide referenced “Peptide C” in Brignola, P. S., et al, (2002) J. Biol. Chem. 277(2):1576-1585. The extent of tyrosine phosphorylation was measured using an anti-phosphotyrosine antibody, and quantified by homogenous time-resolved fluorescence (HTRF).
(§6) Reactions were performed in black 384-well polystyrene flat-bottom plates in a final volume of 20 μL. Assays were performed by adding 10 μL of each of the following solutions, Substrate Mix and Enzyme Mix: The Substrate Mix contained 100 mM 3-[N-morpholino]propanesulfonic acid (MOPS) (pH 7.5), 2 mM MnCl2, 20 μM ATP, 0.01% Tween-20, 0.1 mg/mL (BSA), 0.8 uM peptide substrate, and 1 mM dithiothreitol. The Enzyme Mix contained 100 mM MOPS (pH7.5); 0.01% Tween-20; 0.1 mg/mL BSA, and either 0.8 nM EGFR, 10 nM ErbB2, or 1 nM ErbB4. The Enzyme Mix was added to the compound plates and the plates were incubated at 20° C. for 1 hr. The reactions were then started by adding the Substrate Mix.
(§7) After initiating the reaction with the method described above, the reactions were allowed to proceed for 90 minutes at 20° C. The reactions were then terminated by the addition of 20 μL 100 mM EDTA to each well. 40 μL/well of HTRF detection mix were added to the assay plates. The final concentrations of the detection reagents were: 100 mM HEPES (pH7.5), 0.1 mg/mL BSA, 15 nM streptavidin-labeled allophycocyanin (PerkinElmer), and 1 nM europium-labeled anti-phosphotyrosine antibody (Perkin Elmer). Assay plates were left unsealed and were counted in a Wallac Multilabel Counter 1420 (PerkinElmer).
(§8) Compounds under analysis were dissolved in dimethylsulfoxide (DMSO) to 1.0 mM and serially diluted 1 to 3 with DMSO through twelve dilutions. 1 μL of each concentration was transferred to the corresponding well of an assay plate. This creates a final compound concentration range from 0.00027 to 47.6 μM.
(§9) The data for dose responses were plotted as % Inhibition calculated with the data reduction formula 100*(1-(U1−C2)/(C1−C2)) versus concentration of compound where U1 is the unknown value, C1 is the average control value obtained for 4.76% DMSO, and C2 is the average control value obtained for 0.035 M EDTA. Data were fitted with a curve described by:
(§10) where Vmax is the upper asymptote, Y2 is the Y intercept, and K is the IC50. The results for each compound were recorded as pIC50s, calculated as follows: […]

SK-MEL-28 tumor cells = test: Cell growth inhibition assay (CellTiter-Glo), SK-MEL-28; type: cell-based, Human; conditions: Homo sapiens, SK-MEL-28, 72 h; 3 days incubation
Description: as §1, §2, §3

ErbB2 = target: T2, ErbB2 (Homo sapiens, UniProt P04626); test: ErbB-2 substrate phosphorylation assay (HTRF); type: biochemical
T2 construct: made in house; host or cells: baculovirus expression system
T2 sequence (P04626 23-1255): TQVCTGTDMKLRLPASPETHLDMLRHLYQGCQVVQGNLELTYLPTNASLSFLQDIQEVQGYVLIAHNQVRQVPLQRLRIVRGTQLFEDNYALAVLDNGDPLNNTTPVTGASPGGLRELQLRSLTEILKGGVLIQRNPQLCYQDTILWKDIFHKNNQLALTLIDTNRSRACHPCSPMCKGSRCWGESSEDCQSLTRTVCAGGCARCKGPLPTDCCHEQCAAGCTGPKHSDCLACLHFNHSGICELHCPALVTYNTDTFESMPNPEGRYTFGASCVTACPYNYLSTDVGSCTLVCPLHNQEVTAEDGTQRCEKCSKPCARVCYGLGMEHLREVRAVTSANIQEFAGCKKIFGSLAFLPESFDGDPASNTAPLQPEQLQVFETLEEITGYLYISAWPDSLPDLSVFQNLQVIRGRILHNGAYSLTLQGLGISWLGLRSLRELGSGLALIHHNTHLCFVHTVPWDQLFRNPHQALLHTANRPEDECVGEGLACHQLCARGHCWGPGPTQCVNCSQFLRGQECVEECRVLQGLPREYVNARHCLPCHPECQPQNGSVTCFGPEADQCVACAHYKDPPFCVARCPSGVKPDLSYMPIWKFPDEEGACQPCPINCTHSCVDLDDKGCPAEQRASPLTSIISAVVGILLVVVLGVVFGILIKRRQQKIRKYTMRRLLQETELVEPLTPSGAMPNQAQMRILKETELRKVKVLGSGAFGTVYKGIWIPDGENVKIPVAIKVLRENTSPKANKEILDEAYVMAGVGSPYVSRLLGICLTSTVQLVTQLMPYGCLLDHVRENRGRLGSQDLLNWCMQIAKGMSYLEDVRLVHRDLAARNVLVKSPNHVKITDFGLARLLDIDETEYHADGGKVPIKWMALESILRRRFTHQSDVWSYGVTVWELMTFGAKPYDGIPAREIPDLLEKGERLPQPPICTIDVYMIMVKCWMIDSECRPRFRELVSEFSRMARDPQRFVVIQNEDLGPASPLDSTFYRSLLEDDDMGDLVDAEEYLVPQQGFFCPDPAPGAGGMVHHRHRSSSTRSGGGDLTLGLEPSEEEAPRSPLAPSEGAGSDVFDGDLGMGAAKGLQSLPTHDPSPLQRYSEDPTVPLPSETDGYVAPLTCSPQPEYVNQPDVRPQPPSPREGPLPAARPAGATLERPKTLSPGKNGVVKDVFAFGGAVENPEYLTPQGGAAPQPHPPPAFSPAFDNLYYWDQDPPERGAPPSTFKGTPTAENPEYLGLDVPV
Description: as §4, §5, §6, §7, §8, §9, §10

IC50 (Colo205 tumor cells) [nM]	IC50 (B-Raf) [nM]	IC50 (EGFR) [nM]	IC50 (SK-MEL-28 tumor cells) [nM]	IC50 (ErbB2) [nM]	SMILES
100 to 1000	< 100	> 1000	100 to 1000	100 to 1000	CC(C)c1nc(-c2ccc(F)c(NS(=O)(=O)c3c(F)cccc3F)c2)c(-c2ccnc(Nc3ccc(N4CCN(CCS(C)(=O)=O)CC4)c(F)c3)n2)o1 [Example 61]
< 100	< 100	> 1000	< 100	> 1000	O=S(=O)(Nc1cccc(-c2nc(N3CCCCC3)sc2-c2ccnc(Nc3ccc(N4CCOCC4)c(F)c3)n2)c1)c1c(F)cccc1F [Example 154]
	< 100	> 1000	> 1000	> 1000	COc1ccc(S(C)(=O)=O)cc1Nc1nccc(-c2sc(N3CCOCC3)nc2-c2cccc(NS(=O)(=O)c3c(F)cccc3F)c2OC)n1 [Example 168]
100 to 1000	< 100	> 1000	100 to 1000	100 to 1000	CC(C)c1nc(-c2ccc(F)c(NS(=O)(=O)c3ccccc3C(F)(F)F)c2)c(-c2ccnc(Nc3ccc(N4CCOCC4)nc3)n2)s1 [Example 135]
100 to 1000	100 to 1000	100 to 1000	> 1000	< 100	COc1cc(N2CCN(CCS(C)(=O)=O)CC2)c(C)cc1Nc1nccc(-c2sc(N)nc2-c2cccc(NS(=O)(=O)c3c(F)cccc3F)c2)n1 [Example 63]
< 100	100 to 1000	100 to 1000	100 to 1000	< 100	COc1cc(N2CCN(CCS(C)(=O)=O)CC2)c(C)cc1Nc1nccc(-c2sc(C3CC3)nc2-c2cccc(NS(=O)(=O)c3c(F)cccc3F)c2)n1 [Example 175]
< 100	< 100	< 100	100 to 1000	< 100	COc1cc(N2CCN(CCS(C)(=O)=O)CC2)c(C)cc1Nc1nccc(-c2sc(C(C)C)nc2-c2cccc(NS(=O)(=O)c3cccs3)c2)n1 [Example 50]
< 100	< 100	100 to 1000	< 100	< 100	COc1cc(N2CCN(CCS(C)(=O)=O)CC2)c(C)cc1Nc1nccc(-c2sc(C(C)C)nc2-c2cccc(NS(=O)(=O)c3cccnc3)c2)n1 [Example 54]
100 to 1000	100 to 1000	> 1000	100 to 1000	> 1000	CC(C)c1nc(-c2ccc(F)c(NS(=O)(=O)c3c(F)cccc3F)c2)c(-c2ccnc(Nc3ncc[nH]3)n2)s1 [Example 147]
100 to 1000	100 to 1000	> 1000	100 to 1000	100 to 1000	CCc1nc(-c2ccc(F)c(NS(=O)(=O)c3ccccc3)c2)c(-c2ccnc(Nc3ccc(N4CCN(CCS(C)(=O)=O)CC4)c(F)c3)n2)s1 [Example 67]
100 to 1000	100 to 1000	< 100	100 to 1000	100 to 1000	COc1cc(N2CCN(CCS(C)(=O)=O)CC2)c(C)cc1Nc1nccc(-c2sc(C)nc2-c2cccc(NS(=O)(=O)c3c(F)cccc3F)c2)n1 [Example 134]
100 to 1000	< 100	> 1000	> 1000	> 1000	COC(=O)c1ccc(S(=O)(=O)Nc2cccc(-c3nc(C(C)C)sc3-c3ccnc(Nc4ccc(N5CCOCC5)nc4)n3)c2)o1 [Example 110]
> 1000	100 to 1000	> 1000	> 1000	> 1000	Cc1[nH]c(=O)[nH]c(=O)c1S(=O)(=O)Nc1cccc(-c2nc(C(C)C)sc2-c2ccnc(Nc3ccc(N4CCOCC4)nc3)n2)c1 [Example 41]
> 1000	100 to 1000	> 1000	> 1000	> 1000	COc1cc(C)ccc1S(=O)(=O)Nc1cccc(-c2nc(C(C)C)sc2-c2ccnc(Nc3ccc(N4CCN(C(C)=O)CC4)nc3)n2)c1 [Example 76]
100 to 1000	100 to 1000	> 1000	100 to 1000	> 1000	CC(C)(F)c1nc(-c2ccc(F)c(NS(=O)(=O)c3c(F)cccc3F)c2)c(-c2ccnc(Nc3ccc(N4CCOCC4)nc3)n2)s1 [Example 103]
< 100	100 to 1000		100 to 1000	> 1000	COc1cc(N2CCC(CCS(C)(=O)=O)CC2)c(C)cc1Nc1nccc(-c2sc(N3CCCC3)nc2-c2cccc(NS(=O)(=O)c3c(F)cccc3F)c2)n1 [Example 137]
